Test results reported in PubChem BioAssay (NCI).
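Values below derive from 48-hour exposures of cells grown in 96-well plates, with endpoints linearly interpolated between the two concentrations bracketing the appropriate inhibition level. Abbreviation: GI50, concentration required for 50% inhibition of growth. TGI: total growth inhibition.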

Experiments:
Test in all cases: DTP human tumour cell line panel, 48 h
MALME-3M melanoma = tested on: MALME-3M melanoma
SF-539 CNS = tested on: SF-539 CNS
SK-MEL-2 melanoma = tested on: SK-MEL-2 melanoma
TK-10 renal = tested on: TK-10 renal
OVCAR-8 ovarian = tested on: OVCAR-8 ovarian
A549 NSCLC = tested on: A549 NSCLC
UACC-257 melanoma = tested on: UACC-257 melanoma
HCT-15 colon = tested on: HCT-15 colon
SN12C renal = tested on: SN12C renal
MOLT-4 leukemia = tested on: MOLT-4 leukemia
SF-295 CNS = tested on: SF-295 CNS
786-0 renal = tested on: 786-0 renal
NCI/ADR-RES ovarian = tested on: NCI/ADR-RES ovarian
K-562 leukemia = tested on: K-562 leukemia
UACC-62 melanoma = tested on: UACC-62 melanoma
CAKI-1 renal = tested on: CAKI-1 renal
M14 melanoma = tested on: M14 melanoma
CCRF-CEM leukemia = tested on: CCRF-CEM leukemia
UO-31 renal = tested on: UO-31 renal
LOX IMVI melanoma = tested on: LOX IMVI melanoma
HCT-116 colon = tested on: HCT-116 colon
U251 CNS = tested on: U251 CNS
OVCAR-5 ovarian = tested on: OVCAR-5 ovarian
NCI-H226 lung = tested on: NCI-H226 lung
SK-MEL-28 melanoma = tested on: SK-MEL-28 melanoma
SW-620 colon = tested on: SW-620 colon
ACHN renal = tested on: ACHN renal
MCF7 breast = tested on: MCF7 breast
SR leukemia = tested on: SR leukemia
RPMI-8226 leukemia = tested on: RPMI-8226 leukemia
COLO 205 colon = tested on: COLO 205 colon
SF-268 CNS = tested on: SF-268 CNS
A498 renal = tested on: A498 renal
NCI-H460 lung = tested on: NCI-H460 lung
HOP-92 NSCLC = tested on: HOP-92 NSCLC
PC-3 prostate = tested on: PC-3 prostate
HT29 colon = tested on: HT29 colon
HL-60(TB) leukemia = tested on: HL-60(TB) leukemia
SNB-19 CNS = tested on: SNB-19 CNS
SK-OV-3 ovarian = tested on: SK-OV-3 ovarian
EKVX NSCLC = tested on: EKVX NSCLC
SK-MEL-5 melanoma = tested on: SK-MEL-5 melanoma
KM12 colon = tested on: KM12 colon
OVCAR-4 ovarian = tested on: OVCAR-4 ovarian
MDA-MB-231 breast = tested on: MDA-MB-231 breast
MDA-MB-435 = tested on: MDA-MB-435
IGROV1 ovarian = tested on: IGROV1 ovarian
BT-549 breast = tested on: BT-549 breast
DU-145 prostate = tested on: DU-145 prostate
OVCAR-3 ovarian = tested on: OVCAR-3 ovarian
HOP-62 NSCLC = tested on: HOP-62 NSCLC
HCC-2998 colon = tested on: HCC-2998 colon
NCI-H23 lung = tested on: NCI-H23 lung
SNB-75 CNS = tested on: SNB-75 CNS

SMILES: COc1cc([C@@H]2c3cc4c(cc3[C@@H](Nc3ccc(C(=O)N[C@H]5CCc6cc(OC)c(OC)c(OC)c6-c6ccc(SC)c(=O)cc65)cc3)[C@H]3COC(=O)[C@H]23)OCO4)cc(OC)c1O
- TGI (MALME-3M melanoma): 15.1 µM
- TGI (SF-539 CNS): > 100 µM
- TGI (SK-MEL-2 melanoma): 15.1 µM
- TGI (TK-10 renal): > 100 µM
- TGI (OVCAR-8 ovarian): > 100 µM
- TGI (A549 NSCLC): > 100 µM
- TGI (UACC-257 melanoma): > 100 µM
- TGI (HCT-15 colon): > 100 µM
- TGI (SN12C renal): 16.4 µM
- TGI (MOLT-4 leukemia): 10.9 µM
- TGI (SF-295 CNS): > 100 µM
- TGI (786-0 renal): 19.7 µM
- TGI (NCI/ADR-RES ovarian): 17.3 µM
- TGI (K-562 leukemia): > 100 µM
- TGI (UACC-62 melanoma): 17.2 µM
- TGI (CAKI-1 renal): 13.4 µM
- TGI (M14 melanoma): 52.2 µM
- TGI (CCRF-CEM leukemia): 16.1 µM
- TGI (UO-31 renal): 86.4 µM
- TGI (LOX IMVI melanoma): > 100 µM
- TGI (HCT-116 colon): > 100 µM
- TGI (U251 CNS): 15.2 µM
- TGI (OVCAR-5 ovarian): > 100 µM
- TGI (NCI-H226 lung): > 100 µM
- TGI (SK-MEL-28 melanoma): > 100 µM
- TGI (SW-620 colon): 49.1 µM
- TGI (ACHN renal): 22.2 µM
- TGI (MCF7 breast): 83 µM
- TGI (SR leukemia): 0.149 µM
- TGI (RPMI-8226 leukemia): 38.8 µM
- TGI (COLO 205 colon): 12.7 µM
- TGI (SF-268 CNS): > 100 µM
- TGI (A498 renal): 21.8 µM
- TGI (NCI-H460 lung): 14.2 µM
- TGI (HOP-92 NSCLC): 19.3 µM

SMILES: Cc1ccc(C)c(/C=C2\CN(C(=O)OC(C)(C)C)C/C(=C\c3cc(C)ccc3C)C2=O)c1
- GI50 (OVCAR-8 ovarian): 3.56 µM
- TGI (OVCAR-8 ovarian): > 100 µM
- GI50 (PC-3 prostate): 2.71 µM
- TGI (PC-3 prostate): > 100 µM
- GI50 (MOLT-4 leukemia): 2.78 µM
- TGI (MOLT-4 leukemia): > 100 µM
- GI50 (NCI/ADR-RES ovarian): 3.48 µM
- TGI (NCI/ADR-RES ovarian): > 100 µM
- GI50 (K-562 leukemia): 2.94 µM
- TGI (K-562 leukemia): > 100 µM
- GI50 (CAKI-1 renal): 2.89 µM
- TGI (CAKI-1 renal): > 100 µM
- GI50 (M14 melanoma): 2.99 µM
- TGI (M14 melanoma): > 100 µM
- GI50 (CCRF-CEM leukemia): 2.49 µM
- TGI (CCRF-CEM leukemia): > 100 µM
- GI50 (HCT-116 colon): 1.43 µM
- TGI (HCT-116 colon): 5.34 µM
- GI50 (ACHN renal): 3.07 µM
- TGI (ACHN renal): > 100 µM
- GI50 (MCF7 breast): 1.94 µM
- TGI (MCF7 breast): > 100 µM
- GI50 (SR leukemia): 2.53 µM
- TGI (SR leukemia): > 100 µM
- GI50 (HT29 colon): 3.26 µM
- TGI (HT29 colon): > 100 µM
- GI50 (HL-60(TB) leukemia): 2.52 µM
- TGI (HL-60(TB) leukemia): > 100 µM
- GI50 (SNB-19 CNS): 2.68 µM
- TGI (SNB-19 CNS): > 100 µM
- GI50 (SF-268 CNS): 2.76 µM
- TGI (SF-268 CNS): > 100 µM
- GI50 (SK-OV-3 ovarian): > 100 µM
- TGI (SK-OV-3 ovarian): > 100 µM

SMILES: Clc1cc(Cl)cc(N2N=C(c3cccc(Nc4ccncc4)c3)CC2c2ccc3c(c2)OCO3)c1 (stereo unspecified)
- GI50 (SF-539 CNS): 1.84 µM
- TGI (SF-539 CNS): 3.31 µM
- GI50 (EKVX NSCLC): 1.61 µM
- TGI (EKVX NSCLC): 3.2 µM
- GI50 (SK-MEL-5 melanoma): 1.77 µM
- TGI (SK-MEL-5 melanoma): 3.21 µM
- GI50 (KM12 colon): 1.78 µM
- TGI (KM12 colon): 3.35 µM
- GI50 (OVCAR-4 ovarian): 1.65 µM
- TGI (OVCAR-4 ovarian): 3.18 µM
- GI50 (HCT-15 colon): 1.76 µM
- TGI (HCT-15 colon): 3.44 µM
- GI50 (PC-3 prostate): 1.59 µM
- TGI (PC-3 prostate): 3.18 µM
- GI50 (SN12C renal): 1.66 µM
- TGI (SN12C renal): 3.13 µM
- GI50 (MDA-MB-231 breast): 1.37 µM
- TGI (MDA-MB-231 breast): 2.72 µM
- GI50 (MDA-MB-435): 1.62 µM
- TGI (MDA-MB-435): 3.09 µM
- GI50 (IGROV1 ovarian): 1.62 µM
- TGI (IGROV1 ovarian): 3.18 µM
- GI50 (MOLT-4 leukemia): 1.88 µM
- TGI (MOLT-4 leukemia): 4.49 µM
- GI50 (SF-295 CNS): 1.77 µM
- TGI (SF-295 CNS): 3.2 µM
- GI50 (786-0 renal): 1.69 µM
- TGI (786-0 renal): 3.14 µM
- GI50 (K-562 leukemia): 2.06 µM
- TGI (K-562 leukemia): 4.86 µM
- GI50 (UACC-62 melanoma): 1.71 µM
- TGI (UACC-62 melanoma): 3.17 µM
- GI50 (CAKI-1 renal): 1.54 µM
- TGI (CAKI-1 renal): 2.9 µM
- GI50 (M14 melanoma): 1.75 µM
- TGI (M14 melanoma): 3.37 µM
- GI50 (CCRF-CEM leukemia): 2.72 µM
- TGI (CCRF-CEM leukemia): 18.4 µM
- GI50 (UO-31 renal): 1.36 µM
- TGI (UO-31 renal): 2.67 µM
- GI50 (BT-549 breast): 1.7 µM
- TGI (BT-549 breast): 3.3 µM
- GI50 (DU-145 prostate): 1.71 µM
- TGI (DU-145 prostate): 3.13 µM
- GI50 (HCT-116 colon): 1.7 µM
- TGI (HCT-116 colon): 3.42 µM
- GI50 (OVCAR-3 ovarian): 1.73 µM
- TGI (OVCAR-3 ovarian): 3.27 µM
- GI50 (HOP-62 NSCLC): 1.79 µM
- TGI (HOP-62 NSCLC): 3.64 µM
- GI50 (OVCAR-5 ovarian): 1.83 µM
- TGI (OVCAR-5 ovarian): 3.51 µM
- GI50 (NCI-H226 lung): 1.91 µM
- TGI (NCI-H226 lung): 4.3 µM
- GI50 (SK-MEL-28 melanoma): 1.84 µM
- TGI (SK-MEL-28 melanoma): 3.36 µM
- GI50 (HCC-2998 colon): 1.84 µM
- TGI (HCC-2998 colon): 3.37 µM
- GI50 (SW-620 colon): 1.67 µM
- TGI (SW-620 colon): 3.29 µM
- GI50 (ACHN renal): 1.69 µM
- TGI (ACHN renal): 3.06 µM
- GI50 (MCF7 breast): 1.89 µM
- TGI (MCF7 breast): 4.17 µM
- GI50 (COLO 205 colon): 1.87 µM
- TGI (COLO 205 colon): 3.88 µM
- GI50 (HT29 colon): 2.14 µM
- TGI (HT29 colon): 4.72 µM
- GI50 (NCI-H23 lung): 1.79 µM
- TGI (NCI-H23 lung): 3.45 µM
- GI50 (SF-268 CNS): 1.7 µM
- TGI (SF-268 CNS): 3.34 µM
- GI50 (SK-OV-3 ovarian): 2.54 µM
- TGI (SK-OV-3 ovarian): 8.38 µM
- GI50 (A498 renal): 1.34 µM
- TGI (A498 renal): 4.54 µM
- GI50 (SNB-75 CNS): 1.38 µM
- TGI (SNB-75 CNS): 2.99 µM
- GI50 (NCI-H460 lung): 1.76 µM
- TGI (NCI-H460 lung): 3.34 µM
- GI50 (HOP-92 NSCLC): 1.39 µM
- TGI (HOP-92 NSCLC): 2.82 µM
